Experimental data taken from PubChem BioAssay (NCI).
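48-hour exposure; five concentrations; linearly interpolated endpoints. At the TGI there is no net growth.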

Assays:
Assay in all cases: DTP human tumour cell line panel, 48 h
SW-620 colon = test system: SW-620 colon
EKVX NSCLC = test system: EKVX NSCLC
IGROV1 ovarian = test system: IGROV1 ovarian
U251 CNS = test system: U251 CNS
OVCAR-5 ovarian = test system: OVCAR-5 ovarian
SN12C renal = test system: SN12C renal
SF-539 CNS = test system: SF-539 CNS
SK-MEL-2 melanoma = test system: SK-MEL-2 melanoma
ACHN renal = test system: ACHN renal
OVCAR-4 ovarian = test system: OVCAR-4 ovarian
NCI-H460 lung = test system: NCI-H460 lung
SK-MEL-5 melanoma = test system: SK-MEL-5 melanoma
SK-MEL-28 melanoma = test system: SK-MEL-28 melanoma
MOLT-4 leukemia = test system: MOLT-4 leukemia
CCRF-CEM leukemia = test system: CCRF-CEM leukemia
HCT-15 colon = test system: HCT-15 colon
T-47D breast = test system: T-47D breast
SF-295 CNS = test system: SF-295 CNS
PC-3 prostate = test system: PC-3 prostate
NCI-H522 lung = test system: NCI-H522 lung

Measured: TGI

C[Si](C)(C)C1=C2C(=O)c3ccccc3C(=O)C2=C([Si](C)(C)C)[C@@H]2CCCC[C@H]12
> 100 µM: all assays above
